Measured values from ChEMBL document CHEMBL1201862, “PubChem BioAssay data set” (2004).
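48-hour exposure; five concentrations; linearly interpolated endpoints. The concentration for 50% growth inhibition is given as GI50.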 Active and inactive are the calls of the source. Cut-off read from the data, not from the text of the source: active = GI50 up to about 1.1 µM and inactive = higher.

What was measured:
Assay in all cases: NCI anticancer screen, dose series, 48 h
[1] = test system: 786-0
[2] = test system: COLO 205
[3] = test system: HL-60
[4] = test system: HOP-92
[5] = test system: IGROV-1
[6] = test system: MCF7
[7] = test system: MDA-MB-435
[8] = test system: MDA-N
[9] = test system: MOLT-4
[10] = test system: OVCAR-8
[11] = test system: SF-295
[12] = test system: SF-539
[13] = test system: SK-MEL-2
[14] = test system: SK-MEL-5
[15] = test system: SK-OV-3
[16] = test system: SN12C
[17] = test system: SNB-75
[18] = test system: T47D
[19] = test system: UACC-62
[20] = test system: UO-31

In the case of COc1ccc2c(c1OC)C(=O)O[C@@H]2[C@H]1c2cc3c(cc2CCN1C)OCO3, the GI50 [1] is reported as > 100 µM (inactive), the GI50 [2] is reported as > 100 µM (inactive) and the GI50 [3] is reported as > 100 µM (inactive). The GI50 [4] was > 100 µM (inactive), the GI50 [5] was > 100 µM (inactive) and the GI50 [6] was > 100 µM (inactive). The GI50 [7] was > 100 µM (inactive), the GI50 [8] was > 100 µM (inactive) and the GI50 [9] was > 100 µM (inactive). For the same molecule, the GI50 [10] was > 100 µM (inactive), the GI50 [11] was > 100 µM (inactive) and the GI50 [12] was > 100 µM (inactive). For the same molecule, the GI50 [13] was > 100 µM (inactive), the GI50 [14] was > 100 µM (inactive) and the GI50 [15] was > 100 µM (inactive). The GI50 [16] was > 100 µM (inactive), the GI50 [17] was > 100 µM (inactive) and the GI50 [18] was > 100 µM (inactive). The GI50 [19] was > 100 µM (inactive) and the GI50 [20] was > 100 µM (inactive).

CC[P+](C#Cc1ccccc1)(c1ccccc1)c1ccccc1 was tested, and the GI50 [1] was 1.57 µM (inactive), the GI50 [2] was 1.06 µM (active) and the GI50 [3] was 0.324 µM (active). For the same molecule, the GI50 [4] was 1.92 µM (inactive), the GI50 [5] was 3.1 µM (inactive) and the GI50 [6] was 3.09 µM (inactive). For the same molecule, the GI50 [7] was 1.24 µM (inactive), the GI50 [8] was 1.56 µM (inactive) and the GI50 [9] was 1.36 µM (inactive). For the same molecule, the GI50 [10] was 1.76 µM (inactive), the GI50 [11] was 7.03 µM (inactive) and the GI50 [12] was 1.79 µM (inactive). The GI50 [13] was 1.98 µM (inactive), the GI50 [14] was 1.22 µM (inactive) and the GI50 [15] was 2.93 µM (inactive). For the same molecule, the GI50 [16] was 1.75 µM (inactive), the GI50 [17] was 1.78 µM (inactive) and the GI50 [18] was 2.18 µM (inactive). For the same molecule, the GI50 [19] was 1.63 µM (inactive) and the GI50 [20] was 6.93 µM (inactive).

In the case of N=C(N)NS(=O)(=O)c1ccc(NC(=O)c2ccc3nc4ccccc4c(N)c3c2)cc1, the GI50 [1] is reported as > 100 µM (inactive), the GI50 [2] is reported as > 100 µM (inactive) and the GI50 [3] is reported as > 100 µM (inactive). For the same molecule, the GI50 [4] was > 100 µM (inactive), the GI50 [5] was > 100 µM (inactive) and the GI50 [6] was > 100 µM (inactive). The GI50 [7] was > 100 µM (inactive), the GI50 [8] was > 100 µM (inactive) and the GI50 [9] was > 100 µM (inactive). The GI50 [10] was > 100 µM (inactive), the GI50 [11] was > 100 µM (inactive) and the GI50 [12] was > 100 µM (inactive). The GI50 [13] was > 100 µM (inactive), the GI50 [14] was > 100 µM (inactive) and the GI50 [15] was > 100 µM (inactive). For the same molecule, the GI50 [16] was > 100 µM (inactive), the GI50 [17] was > 100 µM (inactive) and the GI50 [18] was > 100 µM (inactive). The GI50 [19] was > 100 µM (inactive) and the GI50 [20] was > 100 µM (inactive).

For CCOC(=O)NC(Nc1c(F)c(F)c(F)c(F)c1F)(C(F)(F)F)C(F)(F)F, the GI50 [1] was > 100 µM (inactive), the GI50 [2] was > 100 µM (inactive) and the GI50 [3] was > 100 µM (inactive). For the same molecule, the GI50 [4] was > 100 µM (inactive), the GI50 [5] was > 100 µM (inactive) and the GI50 [6] was > 100 µM (inactive). The GI50 [7] was > 100 µM (inactive), the GI50 [8] was > 100 µM (inactive) and the GI50 [9] was > 100 µM (inactive). For the same molecule, the GI50 [10] was > 100 µM (inactive), the GI50 [11] was > 100 µM (inactive) and the GI50 [12] was > 100 µM (inactive). The GI50 [13] was > 100 µM (inactive), the GI50 [14] was > 100 µM (inactive) and the GI50 [15] was > 100 µM (inactive). For the same molecule, the GI50 [16] was > 100 µM (inactive), the GI50 [17] was > 100 µM (inactive) and the GI50 [18] was > 100 µM (inactive). The GI50 [19] was > 100 µM (inactive) and the GI50 [20] was > 100 µM (inactive).

COc1ccc2c(C=O)c3n(c(=O)c2c1OC)CCc1cc2c(cc1-3)OCO2 was tested, and the GI50 [1] was 90.2 µM (inactive), the GI50 [2] was 15.9 µM (inactive) and the GI50 [3] was 29.7 µM (inactive). For the same molecule, the GI50 [4] was 10.9 µM (inactive), the GI50 [5] was 56.6 µM (inactive) and the GI50 [6] was 21.8 µM (inactive). The GI50 [7] was 22.5 µM (inactive), the GI50 [8] was 20 µM (inactive) and the GI50 [9] was 4.59 µM (inactive). The GI50 [10] was 23.4 µM (inactive), the GI50 [11] was 46 µM (inactive) and the GI50 [12] was > 100 µM (inactive). For the same molecule, the GI50 [13] was 25.9 µM (inactive), the GI50 [14] was 24 µM (inactive) and the GI50 [15] was > 100 µM (inactive). The GI50 [16] was 41.3 µM (inactive), the GI50 [17] was 18.9 µM (inactive) and the GI50 [18] was 10.8 µM (inactive). For the same molecule, the GI50 [19] was 21 µM (inactive) and the GI50 [20] was 51.8 µM (inactive).
